Experimental data as given in patent US7947275B2 (Signe Biopharma, Inc., priority 2000, dated 2011).
“And” between values parts separate entries of the source, which are not always exact repeats. Equal entries are not always repeated. Where two headings read alike, the source gives them in different places.

How the values were obtained:
[1] = test system: HT-29 cells; experiment: Cell growth assay, HT-29 human colon cancer cells; type: cell-based; conditions: CAPM with plasma IgM at 40 μg/mL, increasing concentrations of T3
Description: General Cell Culture—Growth Assay Methods.
General Cell Culture—Harvest and Counting Cells.
General Cell Culture—Quantification of Growth.

[2] = test system: GH4C1, GH1 and GH3 rat pituitary tumor cell lines; experiment: Thyroid hormone growth effects with GH cell lines in CDE-horse serum; type: cell-based
Experimental: Thyroid Hormone Responsive Pituitary Tumor Cell Growth in CDE-Serum Prepared at 34° C. […] Nonetheless, the 34° C. […] It is known that the thyroid hormone receptor is a member of a superfamily of receptors that also includes the steroid hormone receptors (Evans R M (1988) Science (Wash D.C.) 240:889-895). Testing of substances expected to have thyroid hormone like activity can be performed with the GH cell lines in the presence of low concentrations of CDE-serum.

[3] = test system: progesterone receptors of MTW9/PL2 cells; experiment: Estrogen induction of progesterone receptors in MTW9/PL2 cells; type: cell-based, rat; conditions: 1.0×10^−8 M E2, within two days; two experiments
Description: All results were normalized to “receptors per cell” to correct for growth over the duration of the experiment.

[4] = test system: LNCaP cells; experiment: Cell growth assay, LNCaP human prostatic carcinoma cells; type: cell-based; conditions: D-MEM/F-12 with CDE-horse serum, 10 nM steroid
Experimental: Specific modifications of the customary cell growth assays were required for assays done under iron-restricted conditions. […] Serum-free components were added to “low-Fe” D-MEM/F-12 at double the concentrations needed (2X) or to “standard” D-MEM/F-12 at (2X) as the experiments dictated. Each assay dish received 1.0 mL of this solution. Next, the cells to be used in the assays were washed three times in either “low-Fe” medium or “standard” medium depending upon the experimental protocol.

[5] = test system: progesterone receptors of T47D cells; experiment: Induction of progesterone receptors in T47D cells; type: cell-based, human; conditions: four days, phenol red free medium
[6] = target: T1, CA-PS-Pool I (predominantly CBG) (Equus caballus, UniProt F7DRS2); experiment: Scatchard analysis of labeled steroid binding to CA-PS-pool I; set-up: species or system horse; conditions: 3H-labeled steroid, 34° C.; read-out: CA-PS-Pool I Kd
T1 sequence (F7DRS2 23-406): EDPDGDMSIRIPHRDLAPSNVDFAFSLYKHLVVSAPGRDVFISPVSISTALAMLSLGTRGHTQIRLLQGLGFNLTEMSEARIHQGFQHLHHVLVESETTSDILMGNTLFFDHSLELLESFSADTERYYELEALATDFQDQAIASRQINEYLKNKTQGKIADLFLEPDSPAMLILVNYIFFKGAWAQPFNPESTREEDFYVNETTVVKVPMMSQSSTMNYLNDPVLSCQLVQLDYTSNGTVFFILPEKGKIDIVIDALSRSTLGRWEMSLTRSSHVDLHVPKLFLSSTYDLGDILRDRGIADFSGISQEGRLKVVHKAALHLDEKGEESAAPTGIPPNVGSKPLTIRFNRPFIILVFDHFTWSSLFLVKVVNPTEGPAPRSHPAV

[7] = test system: CA-PS-Pool II; experiment: Scatchard analysis of labeled steroid binding to CA-PS-pool II; set-up: species or system horse; conditions: 3H-labeled steroid, 34° C.
[8] = test system: CA-PS-Pool II from rat serum; experiment: Scatchard analysis of labeled steroid binding to the SHBG-like pools from rat serum; conditions: 3H-labeled steroid
[9] = test system: MCF-7A, T47D and MTW9/PL2 cells; experiment: Direct test of phenol red versus E2 as mitogen with three ER^+ cell lines; type: cell-based; conditions: phenol red free D-MEM/F-12 with 30% CDE-HS
Experimental: Direct Test of Phenol Red Estrogenic Activity. Three cell lines were selected for a direct test of phenol red as a mitogen. […] This concentration was chosen even though it is not as inhibitory as 50% (v/v) serum. This selection was made to reduce possible interactions of the phenol red/contaminant with serum proteins while still retaining a significant inhibitory effect. Phenol red concentrations of up to 16 mg/L were added to this medium. This highest level was twice that in standard commercially formulated Gibco-BRL D-MEM/F-12. […] The preparations used in this study ranged in age from newly obtained to more than ten year old laboratory stocks.

[10] = read-out: Kd of ^3H-E2 specific binding
[11] = read-out: Kd of ^3H-E2 specific binding; remark: listed apart in the source
[12] = test system: ERβ; conditions: Transfection Studies, ERβ only; cited from earlier work
[13] = target: human SHBG (Homo sapiens, UniProt P04278); conditions: 37° C.; cited from earlier work
human SHBG, sequence (P04278 30-402): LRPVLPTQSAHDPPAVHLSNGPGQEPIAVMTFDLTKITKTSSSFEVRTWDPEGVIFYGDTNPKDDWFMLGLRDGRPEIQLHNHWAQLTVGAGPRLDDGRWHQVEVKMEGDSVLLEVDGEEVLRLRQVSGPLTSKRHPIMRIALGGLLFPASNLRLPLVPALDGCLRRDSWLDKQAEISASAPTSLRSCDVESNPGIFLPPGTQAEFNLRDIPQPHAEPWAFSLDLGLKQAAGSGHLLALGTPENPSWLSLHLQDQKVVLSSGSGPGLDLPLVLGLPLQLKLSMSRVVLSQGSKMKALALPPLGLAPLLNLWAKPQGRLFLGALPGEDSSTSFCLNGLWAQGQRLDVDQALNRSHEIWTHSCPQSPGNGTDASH

[14] = target: estrogen receptor of H301 cells (Mesocricetus auratus, UniProt Q9QZJ5); conditions: cited from earlier work
estrogen receptor of H301 cells, sequence (Q9QZJ5 whole entry): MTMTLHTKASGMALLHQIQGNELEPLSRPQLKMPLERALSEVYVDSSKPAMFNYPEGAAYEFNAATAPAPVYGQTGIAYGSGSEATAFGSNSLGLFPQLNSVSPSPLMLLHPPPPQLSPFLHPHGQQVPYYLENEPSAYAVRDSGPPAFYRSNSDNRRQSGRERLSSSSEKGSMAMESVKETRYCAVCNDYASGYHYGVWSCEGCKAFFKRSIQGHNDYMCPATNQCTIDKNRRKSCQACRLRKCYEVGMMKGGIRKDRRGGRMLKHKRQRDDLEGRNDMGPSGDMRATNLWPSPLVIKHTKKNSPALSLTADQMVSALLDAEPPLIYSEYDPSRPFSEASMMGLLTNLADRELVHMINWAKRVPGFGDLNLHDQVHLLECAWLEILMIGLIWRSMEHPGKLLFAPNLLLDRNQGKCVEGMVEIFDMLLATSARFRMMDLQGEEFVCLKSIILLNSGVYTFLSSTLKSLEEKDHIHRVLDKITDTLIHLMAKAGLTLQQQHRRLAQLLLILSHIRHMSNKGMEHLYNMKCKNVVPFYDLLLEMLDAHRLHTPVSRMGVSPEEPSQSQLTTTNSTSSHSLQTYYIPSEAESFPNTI

[15] = test system: H301 cells; experiment: Cell growth assay, H301 kidney tumor cells; conditions: serum-free defined CAPM
[16] = test system: T47D cells; experiment: Cell growth assay, T47D human breast cancer cells; conditions: serum-free DDM-2MF ± 10 nM E2
[17] = test system: GH4C1 cells; experiment: Cell growth assay, GH4C1 rat pituitary tumor cells; conditions: serum-free PCM-9
[18] = test system: MCF-7K cells; experiment: Cell growth assay, MCF-7K human breast cancer cells; conditions: serum-free DDM-2MF ± 10 nM E2, 12 days
[19] = test system: ZR-75-1 cells; experiment: Cell growth assay, ZR-75-1 human breast cancer cells; conditions: serum-free defined DDM-2MF
[20] = target: T2, estrogen receptors of intact T47D cells (Homo sapiens, UniProt P03372); experiment: Displacement of ^3H-E2 binding to intact T47D cells; conditions: 5 nM ^3H-E2, two hours at 37° C.; r9-r14: 2.5, 5.0, 50, 250, 500, 1000 nM Unlabeled E2; r15-r19: 1, 2, 4, 5, 16 mg/L Phenol Red
T2 construct: endogenous in cells; host or cells: T47D human breast cancer cells

## N[C@@H](Cc1cc(I)c(Oc2ccc(O)c(I)c2)c(I)c1)C(=O)O [T3, 3′, 5-Triiodothyronine]
[1]
  thyroid hormone reversal of the IgM inhibition: restored growth
[2]; 50% (v/v) CDE-horse serum
  growth effect, result in words: only supraphysiologic concentrations of thyroid hormone showed growth effects
[2]; D-MEM/F-12 with […] (v/v) CDE-horse serum
  growth effect, result in words: caused substantial growth

## C[C@]12CC[C@@H]3c4ccc(O)cc4CC[C@H]3[C@@H]1CC[C@@H]2O [E2, 17β-estradiol]
[3]
  increase in number of progesterone receptors per cell: 1.8 fold and 2.0 fold
[4]
  reversal of the inhibition caused by CDE-horse serum: reversed the CDE-serum caused inhibition completely
[5]; 1.0×10^−8 M
  increase in progesterone receptors: four
[5]; 1.0×10^−12 M
  increase in progesterone receptor content: two
[6]
  Kd: 10.5 µM
[7]
  CA-PS-Pool II Ka: 3.55e+07 M⁻¹
[8]
  CA-PS-Pool II Ka: 2.4e+07 M⁻¹
  Kd: 0.041 µM
[9]
  growth responses to the natural hormone: 2 to 5 CPD
[10]
  Kd: 0.02 to 0.05 µM
[11]
  Kd: 0.02 to 0.05 µM
[12]
  Kd for E2, CELL EXTRACTS: 0.05 to 0.1 × 10^−9 M
[13]
  Ka of purified human SHBG: 2.2e+08 M⁻¹
[14]; read-out: Kd for E2, CELL EXTRACTS
  Kd: 0.00087 µM
[14]; read-out: Kd for E2, Table 5: lowest Kd
  Kd: 0.00087 µM
[14]; read-out: Kd for E2, WHOLE CELLS
  Kd: 0.001 µM
[15]
  effect of estrogen in serum-free defined medium without inhibitor: had no effect on H301 cell growth
[16]
  effect of estrogen in serum-free defined medium without inhibitor: 0.5 to 1.0 CPD
[16]; listed as estrogen
  effect of estrogen in serum-free defined medium without inhibitor: 1.0 CPD
[17]
  effect of E2 in serum-free defined medium without inhibitor: had no effect on growth rate or saturation density
[18]
  effect of E2 in serum-free defined medium without inhibitor: had no effect on growth rate or saturation density
[19]
  effect of E2 in serum-free defined medium without inhibitor: no effect

## O=S1(=O)OC(c2ccc(O)cc2)(c2ccc(O)cc2)c2ccccc21 [Phenol Red]
[20]
  Percent of Control: 102% and 111% and 94% and 99% and 110%
